Test results reported in ChEMBL document CHEMBL1649194, “Pharmacokinetics of intracameral voriconazole injection” (Antimicrob Agents Chemother, 2009).

Tests used:
[1] = Half life in human eye administered as intracameral injection; format: ADME, tissue-based
[2] = Half life in New Zealand White rabbit eye administered as intracameral injection; format: ADME, tissue-based, Oryctolagus cuniculus; details: topical or ocular
[3] = Drug level in New Zealand White rabbit eye aqueous humor at 25 ug/25 ul administered as intracameral injection measured after 15 mins; format: ADME, tissue-based, Oryctolagus cuniculus; details: topical or ocular, read-out: Drug uptake
[4] = Drug level in New Zealand White rabbit eye aqueous humor at 25 ug/25 ul administered as intracameral injection measured after 30 mins; format: ADME, tissue-based, Oryctolagus cuniculus; details: topical or ocular, read-out: Drug uptake
[5] = Drug level in New Zealand White rabbit eye aqueous humor at 25 ug/25 ul administered as intracameral injection measured after 45 mins; format: ADME, tissue-based, Oryctolagus cuniculus; details: topical or ocular, read-out: Drug uptake
[6] = Drug level in New Zealand White rabbit eye aqueous humor at 25 ug/25 ul administered as intracameral injection measured after 60 mins; format: ADME, tissue-based, Oryctolagus cuniculus; details: topical or ocular, read-out: Drug uptake
[7] = Drug level in New Zealand White rabbit eye aqueous humor at 25 ug/25 ul administered as intracameral injection measured after 90 mins; format: ADME, tissue-based, Oryctolagus cuniculus; details: topical or ocular, read-out: Drug uptake
[8] = Drug level in New Zealand White rabbit eye aqueous humor at 25 ug/25 ul administered as intracameral injection measured after 120 mins; format: ADME, tissue-based, Oryctolagus cuniculus; details: topical or ocular, read-out: Drug uptake
[9] = Drug level in New Zealand White rabbit eye aqueous humor at 25 ug/25 ul administered as intracameral injection measured after 150 mins; format: ADME, tissue-based, Oryctolagus cuniculus; details: topical or ocular, read-out: Drug uptake
[10] = Drug level in New Zealand White rabbit eye aqueous humor at 25 ug/25 ul administered as intracameral injection measured after 180 mins; format: ADME, tissue-based, Oryctolagus cuniculus; details: topical or ocular, read-out: Drug uptake
[11] = Half life in human serum; format: ADME, cell-free
[12] = Half life in rabbit serum; format: ADME, cell-free, Oryctolagus cuniculus
[13] = Half life in New Zealand White rabbit eye aqueous humor at 25 ug/25 ul administered as intracameral injection; format: ADME, tissue-based, Oryctolagus cuniculus, Aqueous humor of eyeball; details: topical or ocular

Compound: GENTAMICIN
- t1/2 ([1]; topical_or_ocular): 0.85 h

Compound: NCC[C@H](O)C(=O)N[C@@H]1C[C@H](N)[C@@H](O[C@H]2O[C@H](CN)[C@@H](O)[C@H](O)[C@H]2O)[C@H](O)[C@H]1O[C@H]1O[C@H](CO)[C@@H](O)[C@H](N)[C@H]1O [AMIKACIN]
- half-life [2]: 0.58 h

Compound: C[C@@H](c1ncncc1F)[C@](O)(Cn1cncn1)c1ccc(F)cc1F [VORICONAZOLE]
- concentration at 0.25 h [3]: 25.4 µg/mL
- concentration at 0.5 h [4]: 13.5 µg/mL
- concentration at 0.75 h [5]: 7.73 µg/mL
- concentration at 1 h [6]: 5.1 µg/mL
- concentration at 1.5 h [7]: 2.67 µg/mL
- concentration at 2 h [8]: 1.4 µg/mL
- concentration at 2.5 h [9]: 0.39 µg/mL
- concentration at 3 h [10]: 0.15 µg/mL
- half-life ([1]; eye, topical or ocular): 3.27 h
- half-life [11]: 6.5 h
- half-life [12]: 2.5 h
- half-life [13]: 0.367 h
